As a reminder, the IC50 is the concentration that inhibits the measured activity by half. A word on the Kd: it is the concentration at which binding is half-saturated.

The values that follow come from article PMC5974090, “A fluorescence anisotropy assay to discover and characterize ligands targeting the maytansine site of tubulin” (Nature Communications, 2018).

On the set-up of assay [1]: method as in Panda et al., Proc Natl Acad Sci USA 95, 9313 (1998). The note with it: ref Panda et al., Proc Natl Acad Sci USA 95, 9313 (1998); cited from earlier work.
In assay [2] the target is T1, tubulin (Bos taurus, UniProt Q6B856). Details: method as in Panda et al., Proc Natl Acad Sci USA 95, 9313 (1998). The note with it: exact binding site on tubulin unknown; ref Panda et al., Proc Natl Acad Sci USA 95, 9313 (1998); cited from earlier work.
Assay [3] has as its target T1, tubulin. Put plainly: Fluorescence anisotropy titration of FcMaytansine with tubulin (direct binding). The note with it: 25 °C. Here is the method: The binding constant of the fluorescent FcMaytansine probe to tubulin was determined by fluorescence anisotropy titration at 25 °C in black Greiner 384-well, flat-bottom microplates and in a final volume of 50 µL. 10 nM FcMaytansine in assay buffer (15 mM PIPES-KOH, pH 6.8, supplemented with 0.3 mM MgCl2 and 0.2 mM EDTA) was titrated with increasing amounts of tubulin up to 400 nM. The anisotropy and fluorescence values of the free (r = 0.016 ± 0.001, fluorescence = 1 (arbitrary units)) and bound (r = 0.245 ± 0.005, fluorescence = 3.10 ± 0.05 (arbitrary units)) states were determined in the absence and presence of 400 nM tubulin, respectively. The anisotropy was measured using a PHERAstar microplate reader (BMG Labtech) with the fluorescence polarization module. […] The read height and the gain were adjusted automatically. […]
In order to calculate the binding constant of FcMaytansine and one of a non-fluorescent ligand from a competition experiment, the fractional saturation, νb, of FcMaytansine has to be determined. Binding of FcMaytansine to tubulin was measured through changes in its anisotropy. […]
In the simplest case of a fluorescent probe with no quantum yield difference between the bound and the free state, the fraction of bound (νb) and free (νf) fluorophore coincides with the fluorescence fractions for the bound and free fluorophore (Fb and Ff, respectively). […]
(Polarisation of emitted light reports the rotation of a fluorescent probe.)

For assay [4], the system named is cells. Details: method as in PMID 25826705. The following applies: in vitro cytotoxicity, compound added exogenously; cited from earlier work.
Assay [5] has as its target maytansine site of tubulin (Bos taurus, UniProt Q6B856). It counts as binding. The following applies: for Kd: 25 °C, mean ± SEM, n = 3, read-out: Kd from FcMaytansine displacement. Here is the method: Vinblastine and colchicine were used as negative controls. […] The mixture was then incubated with an unlabeled competitor at increasing concentrations prior to anisotropy measurements.
Fluorescence anisotropy competition experiments and analyses were performed as previously described[34] with minor modifications. Samples containing 10 nM FcMaytansine and 4 nM tubulin in assay buffer were titrated with increasing amounts of a competitor at 25 °C in black Greiner 384-well, flat-bottom microplates and in a final volume of 50 µL. Fluorescence anisotropy measurements were carried out as described above.
The system was solved using EQUIGRA5[34] using the binding constant of FcMaytansine and a stoichiometry of 1:1 for the tubulin–FcMaytansine complex (EQUIGRA5 can be obtained upon request from Fernando Díaz, fer@cib.csic.es).

The target in assay [6] is T1, tubulin. Details: method as in PMID 20937594. The following applies: reported previously; buffer with 100 mM PIPES; read-out: Kd for the tubulin-maytansine interaction; cited from earlier work.
The subject of assay [7] is mouse xenograft models. Also noted: method as in Xu et al. 2011; Rothmeier et al. 2010; Paterson et al. 2003. The following applies: ref Xu et al. 2011, Rothmeier et al. 2010, Paterson et al. 2003; cited from earlier work.
Assay [8] has as its system human cancer cell lines. Details: method as in Xu et al. 2011; Rothmeier et al. 2010; Paterson et al. 2003. The following applies: large panel of human cancer cell lines; ref Xu et al. 2011; Rothmeier et al. 2010; Paterson et al. 2003; cited from earlier work.
Setting [9] is: 10 nM FcMaytansine, 4 nM tubulin.
The mark [10] stands for this setting: 10 nM FcMaytansine, 4 nM tubulin, increasing competitor concentrations.

Where two headings read alike, the source gives them in different places.

maytansine site of tubulin, sequence (P81947 whole entry): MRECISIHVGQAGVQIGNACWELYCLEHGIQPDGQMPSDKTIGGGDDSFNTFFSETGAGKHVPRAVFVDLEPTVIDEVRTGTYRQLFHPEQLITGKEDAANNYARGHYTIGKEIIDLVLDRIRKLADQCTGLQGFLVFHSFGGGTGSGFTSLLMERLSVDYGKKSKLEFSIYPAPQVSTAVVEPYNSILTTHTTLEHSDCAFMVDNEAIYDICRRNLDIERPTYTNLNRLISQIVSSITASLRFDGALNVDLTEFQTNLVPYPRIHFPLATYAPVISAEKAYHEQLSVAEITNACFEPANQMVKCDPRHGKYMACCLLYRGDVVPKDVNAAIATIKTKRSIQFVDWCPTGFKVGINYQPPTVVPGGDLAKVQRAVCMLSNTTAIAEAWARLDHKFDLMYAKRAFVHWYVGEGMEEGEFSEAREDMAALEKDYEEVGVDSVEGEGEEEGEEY
maytansine site of tubulin, sequence (Q6B856 whole entry): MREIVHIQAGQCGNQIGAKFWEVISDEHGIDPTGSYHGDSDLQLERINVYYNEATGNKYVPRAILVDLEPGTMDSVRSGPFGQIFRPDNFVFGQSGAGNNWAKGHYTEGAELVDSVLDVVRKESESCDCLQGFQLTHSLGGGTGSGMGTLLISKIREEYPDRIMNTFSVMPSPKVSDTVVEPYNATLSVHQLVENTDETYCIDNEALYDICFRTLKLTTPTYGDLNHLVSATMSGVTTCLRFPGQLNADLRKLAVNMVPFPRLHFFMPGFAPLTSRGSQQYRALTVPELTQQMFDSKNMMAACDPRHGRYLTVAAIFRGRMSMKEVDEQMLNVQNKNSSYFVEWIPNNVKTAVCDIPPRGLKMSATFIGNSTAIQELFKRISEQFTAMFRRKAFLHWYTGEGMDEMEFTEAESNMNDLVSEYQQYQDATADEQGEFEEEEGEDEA
T1 sequence (Q6B856 whole entry): as above
T1 sequence (P81947 whole entry partner): as the sequence (P81947 whole entry) above

With `COc1ccc(C[C@H]2NC(=O)/C=C/C[C@@H]([C@H](C)[C@H]3O[C@@H]3c3ccccc3)OC(=O)[C@H](CC(C)C)OC(=O)C(C)(C)CNC2=O)cc1Cl` [Cryptophycin 52], the 50% inhibitory concentration (IC50) in assay [1] is 0.02 nM. Also, the dissociation constant Kd in assay [2] is 47 nM. Consider `COc1cc2cc(c1Cl)N(C)C(=O)CC(OC(=O)CCCCc1cn(CCCNC(=O)c3ccc(C(=O)O)c(-c4c5ccc(=O)cc-5oc5cc(O)ccc45)c3)nn1)C1(C)OC1C(C)C1CC(O)(NC(=O)O1)C(OC)C=CC=C(C)C2` (centres unmarked) [FcMaytansine], for which, in assay [3] (10 nM FcMaytansine, tubulin 0 to 400 nM, single binding site model, mean ± SEM, n = 5, read-out: dissociation constant, Kd, for the tubulin-FcMaytansine interaction), the equilibrium dissociation constant (Kd) turned out to be 6.8 ± 0.8 nM. Further, the “binding constant of FcMaytansine to tubulin” value in assay [3] (stoichiometry 1:1, association constant) was 1.6 ± 0.3 × 10^8 M^−1. As to `COc1cc2cc(c1Cl)N(C)C(=O)CC(OC(=O)C(C)N(C)C(=O)CCSC1CC(=O)N(CC3CCC(C(=O)NCCCCC(N)C(=O)O)CC3)C1=O)C1(C)OC1C(C)C1CC(O)(NC(=O)O1)C(OC)C=CC=C(C)C2` (centres unmarked) [M9], the “fold less potent in cellular assays than S-Me DM1” value in assay [4] is recorded as ~ 450 fold. For the compound `C/C=C\C[C@@H](C/C=C\NC(=O)[C@@H](NC(=O)\C=C/C=C\C(C)=C\[C@H](C)[C@@H]1CC=C(OC)C(=O)O1)C(C)(C)C)OC(N)=O` [PM060184], the Kd in assay [5] (setting [9]) is 111 ± 30 nM. Also, the “displacement of FcMaytansine from tubulin” value (shortened to “displacement of FcMaytansine”) in assay [5] (setting [10]) is “fully displaced”.

With `C/C=C/[C@H](O)C(C)(C(=O)OC)[C@@H]1C\C=C/C=C/C=C/c2nc(co2)C(=O)O[C@H](C(C)(C(=O)OC)[C@@H](O)/C=C/C)C\C=C/C=C/C=C/c2nc(co2)C(=O)O1` (some centres unmarked) [disorazole Z], the “binding affinity value relative to maytansine and spongistatin” value in assay [5] (times higher Kd than maytansine and spongistatin, rebuttal letter) was ~ 100 times. Regarding `COc1cc2cc(c1Cl)N(C)C(=O)C[C@H](OC(=O)[C@H](C)N(C)C(C)=O)[C@]1(C)O[C@H]1[C@H](C)[C@@H]1C[C@@](O)(NC(=O)O1)[C@H](OC)/C=C/C=C(\C)C2` [maytansine], in assay [6], the Kd is about 900 nM. On to `CC[C@]1(O)C[C@@H]2CN(CCc3c([nH]c4ccccc34)[C@@](C(=O)OC)(c3cc4c(cc3OC)N(C)[C@H]3[C@@](O)(C(=O)OC)[C@H](OC(C)=O)[C@]5(CC)C=CCN6CC[C@]43[C@@H]65)C2)C1` [vinblastine], for which, in assay [5], the “displacement of FcMaytansine” value is reported as “not”.

With ansamitocin P3, the “displacement of FcMaytansine” value in assay [5] (setting [10]) is recorded as “fully displaced”.

As for spongistatin-1, the dissociation constant Kd in assay [5] (setting [9]) is 9.5 ± 1.9 nM. Further, in assay [7], the “in vivo antitumour activity” value is on record as “antitumour activity”. In assay [8], the antiproliferative activity result is reported as “single digit picomolar”.
